This note sets out measurements from patent US20260078145A1, “Polypeptides having cholesterol-lowering function in soybean protein hydrolysate, preparation method thereof, and uses thereof” (WUHAN ZHENFU INNOVATION BIOPHARMACEUTICAL CO., LTD, priority 2023, published 2026).

For series [1] the following is noted: rat, in vivo, po.
Procedure: (§1) A hyperlipidemic animal model was established as follows: Forty healthy adult male Sprague-Dawley (SD) rats, weighing 200±20 g, were used. A blank control group of 10 rats was fed a standard diet. The remaining 30 rats constituted the modeling group and were fed a high-fat diet (commercially available, 60% fat content).
(§2) The blank control group and the model control group were administered an equal volume of 0.9% physiological saline by oral gavage. The other two groups were administered aqueous solutions of the test samples by oral gavage.
(§3) During the gavage period, the blank control group was fed a standard diet daily, while the other groups continued receiving the high-fat diet. All rats had free access to water. Oral gavage was performed once daily for 4 consecutive weeks, and body weights were measured regularly.
A short description of series [2]: Rat body weight during oral gavage.
Procedure: as §1, §2, §3
Series [3] relates to hyperlipidemic rats. The experiment in a line: Serum lipid levels in hyperlipidemic rat model after oral gavage. Conditions: after 4 weeks of oral gavage, high-fat diet rats. The format is in vivo, Sprague-Dawley (SD) rats. The procedure:
After 1-2 weeks of feeding the high-fat diet to the modeling group, blood was collected from the blank control group and the modeling group without fasting (from the inner canthus or tail). Serum was separated as soon as possible after blood collection, and serum levels of Total Cholesterol (TC), Triglycerides (TG), Low-Density Lipoprotein Cholesterol (LDL-C), and High-Density Lipoprotein Cholesterol (HDL-C) were measured. The modeling group was randomly divided into 3 groups (model control group, cholesterol-lowering peptide group, lovastatin control group). No significant differences in TC, TG, LDL-C, and HDL-C were observed among these groups.
All rats had free access to water.

Read-outs that look alike come from different tables or passages of the source. Marks after values point to notes of the source that are not given here. Ends that are not written are not given here.

As for FFFPF [FFFPF], in series [1], the “Body Weight (g) At Day 0 of Administration” value amounted to 200.89 g, the “Body Weight (g) At Day 14 of Administration” value was 220.75 g and the “Body Weight (g) At Day 28 of Administration” value is 237.35 g.

Consider `CC[C@H](C)C(=O)O[C@H]1C[C@@H](C)C=C2C=C[C@H](C)[C@H](CC[C@@H]3C[C@@H](O)CC(=O)O3)[C@H]21` [Lovastatin], for which, in series [2] (Day 14 and Day 28 of administration, compared among groups), the “effect on rat body weight” value is “no significant effect”. Also, the “Body Weight (g) At Day 0 of Administration” value in series [2] (high-fat diet rats, oral gavage once daily, Day 0) was determined as 200.78 g. Further, in series [2] (high-fat diet rats, oral gavage once daily, Day 14), the “Body Weight (g) At Day 14 of Administration” value is given as 221.16 g. For the same compound, the “Body Weight (g) At Day 28 of Administration” value in series [2] (high-fat diet rats, oral gavage once daily, Day 28) was found to be 236.39 g. In series [3], the “High-Density Lipoprotein Cholesterol (HDL-C)” value is 0.54**, the “Low-Density Lipoprotein Cholesterol (LDL-C)” value is on record as 0.32**, the “Total Cholesterol (TC)” value is 3.06** and the “Triglycerides (TG)” value was 0.98**.
